Assay results: patent publication US8389563B2, “C-substituted diindolylmethane compositions and methods for the treatment of multiple cancers” (The Texas A&M University System, priority 2000, dated 2013)

Columns and labels:
PPARγ = biological target: T1, PPARγ (Homo sapiens, UniProt P37231); assay: pGAL4-PPARγ / pGAL45 luciferase reporter assay in MCF-7 breast cancer cells; format: cell-based; conditions: 5 μM
T1 construct: expressed in transfected cells; host or cells: MCF-7 breast cancer cells
T1 sequence (P37231 238-503 limits assumed): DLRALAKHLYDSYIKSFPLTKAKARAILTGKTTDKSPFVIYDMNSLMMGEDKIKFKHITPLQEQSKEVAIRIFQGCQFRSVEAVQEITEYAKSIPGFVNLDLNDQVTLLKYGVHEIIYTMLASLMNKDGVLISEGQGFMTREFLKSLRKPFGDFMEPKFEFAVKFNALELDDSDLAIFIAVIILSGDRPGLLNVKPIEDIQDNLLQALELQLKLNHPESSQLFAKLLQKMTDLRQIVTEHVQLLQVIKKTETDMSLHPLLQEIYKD
Source text: Peroxisome proliferator-activated receptor (PPAR) is a nuclear receptor that induces differentiation in multiple tissues and cell lines. Synthetic compounds that bind PPAR (inhibit growth, induce differentiation in multiple tumor cell lines, and inhibit mammary carcinogenesis in rodent models (Mueller et al., “Terminal differentiation of human breast cancer through PPAR” Mol. Cell. 1:465 470, 1998; Elstner et al., “Ligands for peroxisome proliferator-activated receptor gamma and retinoic acid receptor inhibit growth and induce apoptosis of human breast cancer cells in vitro and in BNX mice” Proc. Natl. Acad. Sci. USA 95:8806 8811, 1998; Brockman et al., “Activation of PPARγ leads to inhibition of anchorage independent growth of human colorectal cancer cells” Gastroenterology 115:2049 1055, 1998; Tontonoz et al., “Terminal differentiation of human lipsarcoma cells induced by ligands for peroxisome proliferator-activated receptor and the retinoid X receptor” Proc. Natl. Acad. Sci. USA 94:237 241, 1997; Suh et al., “A new ligand for the peroxisome proliferator-activated receptor-PPAR, GW7845, inhibits rat mammary carcinogenesis” Cancer Res. 59:56715673, 1999). […] Ligand activation of pGAL4-PPARγ is detected using a construct containing five tandem GAL4 response elements (pGAL45) linked to a luciferase reporter gene.

[1] = tested on: CYP1A1-dependent ethoxyresorufin O-deethylase (EROD) activity; assay: Induction of EROD activity in PC3 prostate cancer cells
Source text: (§1) Results illustrated below summarize the concentration-dependent induction of CYP1A1-dependent ethoxyresorufin O-deethylase (EROD) activity by DIM and TCDD in androgen-nonresponsive PC3 human prostate cancer cells (FIG. 12). […] We also investigated the induction of EROD activity in two additional androgen-responsive prostate cancer cell lines.

[2] = tested on: CYP1A1-dependent ethoxyresorufin O-deethylase (EROD) activity; assay: Induction of EROD activity in 22Rv1 prostate cancer cells; conditions: treatment for 24 hrs; TCDD 0.1 to 10 nM
Source text: as §1

[3] = tested on: 22Rv1 human prostate cancer cells; assay: Proliferation of 22Rv1 prostate cancer cells; format: cell-based; conditions: 1 nM TCDD
[4] = tested on: CYP1A1-dependent ethoxyresorufin O-deethylase (EROD) activity; assay: Induction of EROD activity in LnCAP prostate cancer cells; format: cell-based, human
Source text: as §1

SMILES	Increase in reporter gene (luciferase) activity, pGAL4-PPARγ (PPARγ) [fold]	Treatment time of maximal EROD induction in PC3 cells ([1]; 10 nM TCDD) [h]	Induction of EROD activity in PC3 cells ([1]; 10 μM DIM, 10 nM TCDD)	Induction of EROD activity in PC3 cells after 24 hours ([1]; 24 hours)	Induction of EROD activity in 22Rv1 cells [2]	Proliferation of 22Rv1 human prostate cancer cells [3]	Induction of EROD activity in LnCAP cells [4]
CCCCC/C=C/C=C1/C(=O)C=C[C@@H]1C/C=C\CCCC(=O)O [PGJ, 15-deoxy-γ^12,14-prostaglandin J2]	2						
Clc1cc2c(cc1Cl)Oc1cc(Cl)c(Cl)cc1O2 [TCDD, 2,3,7,8-tetrachlorodibenzo-p-dioxin]		96	induced EROD activity	minimal (but significant) induction	induced EROD activity	inhibited proliferation	significant induction of EROD activity
